From ChEMBL document CHEMBL1811901, “Bioactive sulfoximines: syntheses and properties of Vioxx analogs” (Bioorg Med Chem Lett, 2011)

Tests used:
[1] = target: T1, Prostaglandin G/H synthase 1 (Homo sapiens, UniProt P23219); assay: Inhibition of human platelets COX1 assessed as PGE2 production using arachidonic acid as substrate at 10 uM preincubated for 15 mins measured after 15 mins by EIA
[2] = target: T1, Prostaglandin G/H synthase 1; assay: Inhibition of human platelets COX1 assessed as PGE2 production using arachidonic acid as substrate preincubated for 15 mins measured after 15 mins by EIA
[3] = target: T2, Prostaglandin G/H synthase 2 (Homo sapiens, UniProt P35354); assay: Inhibition of human recombinant COX2 expressed in Sf21 cells assessed as PGE2 production using arachidonic acid as substrate preincubated for 15 mins measured after 5 mins by EIA
T2 sequence (P35354 whole entry): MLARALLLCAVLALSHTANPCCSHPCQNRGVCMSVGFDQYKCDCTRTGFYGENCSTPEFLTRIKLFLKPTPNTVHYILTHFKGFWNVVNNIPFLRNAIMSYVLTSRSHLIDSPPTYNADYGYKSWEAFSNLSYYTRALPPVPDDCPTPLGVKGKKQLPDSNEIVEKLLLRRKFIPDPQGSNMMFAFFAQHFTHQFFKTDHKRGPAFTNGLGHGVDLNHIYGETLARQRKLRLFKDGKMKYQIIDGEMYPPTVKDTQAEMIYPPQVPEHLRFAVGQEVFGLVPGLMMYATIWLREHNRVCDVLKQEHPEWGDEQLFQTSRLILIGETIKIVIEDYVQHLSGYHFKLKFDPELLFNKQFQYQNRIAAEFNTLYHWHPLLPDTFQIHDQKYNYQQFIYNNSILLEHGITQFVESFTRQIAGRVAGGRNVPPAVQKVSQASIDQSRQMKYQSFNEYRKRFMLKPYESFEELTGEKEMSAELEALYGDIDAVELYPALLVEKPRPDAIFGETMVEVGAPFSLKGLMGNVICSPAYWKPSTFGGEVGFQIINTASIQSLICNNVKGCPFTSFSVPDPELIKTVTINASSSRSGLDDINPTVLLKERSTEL

[4] = target: T3, hERG (KCNH2) (Homo sapiens, UniProt Q12809); assay: Inhibition of human ERG expressed in HEK293 cells assessed as inhibition of tail current at holding potential of -70 mV at 1 uM after 10 mins by whole-cell patch clamp method; type: cell-based; conditions: HEK293 cells that express hERG
T3 sequence (Q12809 whole entry): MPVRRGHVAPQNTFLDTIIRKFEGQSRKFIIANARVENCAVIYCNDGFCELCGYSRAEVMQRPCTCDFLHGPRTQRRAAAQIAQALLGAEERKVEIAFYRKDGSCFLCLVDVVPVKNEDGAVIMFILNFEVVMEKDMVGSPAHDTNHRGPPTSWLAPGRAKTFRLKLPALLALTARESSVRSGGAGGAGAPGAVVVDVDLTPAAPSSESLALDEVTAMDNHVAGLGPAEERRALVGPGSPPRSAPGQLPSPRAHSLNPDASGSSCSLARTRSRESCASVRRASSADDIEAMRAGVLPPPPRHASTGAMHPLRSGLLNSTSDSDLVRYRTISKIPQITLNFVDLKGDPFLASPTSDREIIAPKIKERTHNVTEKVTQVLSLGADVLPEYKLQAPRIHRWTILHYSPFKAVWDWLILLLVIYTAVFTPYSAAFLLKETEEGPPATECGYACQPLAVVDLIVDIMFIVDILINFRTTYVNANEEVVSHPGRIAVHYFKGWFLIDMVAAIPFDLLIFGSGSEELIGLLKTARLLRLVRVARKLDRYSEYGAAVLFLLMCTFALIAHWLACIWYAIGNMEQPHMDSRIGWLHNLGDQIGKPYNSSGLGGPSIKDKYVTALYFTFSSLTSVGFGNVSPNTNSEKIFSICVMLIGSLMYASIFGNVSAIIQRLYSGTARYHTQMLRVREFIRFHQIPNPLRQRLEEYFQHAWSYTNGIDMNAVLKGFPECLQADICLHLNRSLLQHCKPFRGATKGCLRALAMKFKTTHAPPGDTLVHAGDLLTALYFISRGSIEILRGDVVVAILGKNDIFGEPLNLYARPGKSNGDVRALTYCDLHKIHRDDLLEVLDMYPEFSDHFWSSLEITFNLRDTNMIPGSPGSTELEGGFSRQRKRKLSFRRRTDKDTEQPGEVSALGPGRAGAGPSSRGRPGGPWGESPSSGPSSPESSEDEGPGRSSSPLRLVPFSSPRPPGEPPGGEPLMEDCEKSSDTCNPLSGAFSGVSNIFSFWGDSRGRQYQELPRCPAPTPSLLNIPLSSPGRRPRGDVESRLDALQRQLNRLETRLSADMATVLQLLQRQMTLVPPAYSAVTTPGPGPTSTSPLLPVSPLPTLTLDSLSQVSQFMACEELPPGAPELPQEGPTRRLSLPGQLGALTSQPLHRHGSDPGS

[5] = target: T3, hERG (KCNH2); assay: Inhibition of human ERG expressed in HEK293 cells assessed as inhibition of tail current at holding potential of -70 mV at 3.16 uM after 10 mins by whole-cell patch clamp method; type: cell-based; conditions: HEK293 cells that express hERG
[6] = target: T3, hERG (KCNH2); assay: Inhibition of human ERG expressed in HEK293 cells assessed as inhibition of tail current at holding potential of -70 mV at 10 uM after 10 mins by whole-cell patch clamp method; type: cell-based; conditions: HEK293 cells that express hERG
[7] = target: T3, hERG (KCNH2); assay: Inhibition of human ERG expressed in HEK293 cells assessed as inhibition of tail current at holding potential of -70 mV at 31.6 uM after 10 mins by whole-cell patch clamp method; type: cell-based; conditions: HEK293 cells that express hERG
[8] = target: T3, hERG (KCNH2); assay: Inhibition of human ERG expressed in HEK293 cells assessed as inhibition of tail current at holding potential of -70 mV at 100 uM after 10 mins by whole-cell patch clamp method; type: cell-based; conditions: HEK293 cells that express hERG
[9] = target: T3, hERG (KCNH2); assay: Inhibition of human ERG expressed in HEK293 cells assessed as inhibition of tail current at holding potential of -70 mV at 1 uM after 10 mins by whole-cell patch clamp method relative to control; type: cell-based; conditions: HEK293 cells that express hERG
[10] = target: T3, hERG (KCNH2); assay: Inhibition of human ERG expressed in HEK293 cells assessed as inhibition of tail current at holding potential of -70 mV at 3.16 uM after 10 mins by whole-cell patch clamp method relative to control; type: cell-based; conditions: HEK293 cells that express hERG

T1 sequence (P23219 whole entry): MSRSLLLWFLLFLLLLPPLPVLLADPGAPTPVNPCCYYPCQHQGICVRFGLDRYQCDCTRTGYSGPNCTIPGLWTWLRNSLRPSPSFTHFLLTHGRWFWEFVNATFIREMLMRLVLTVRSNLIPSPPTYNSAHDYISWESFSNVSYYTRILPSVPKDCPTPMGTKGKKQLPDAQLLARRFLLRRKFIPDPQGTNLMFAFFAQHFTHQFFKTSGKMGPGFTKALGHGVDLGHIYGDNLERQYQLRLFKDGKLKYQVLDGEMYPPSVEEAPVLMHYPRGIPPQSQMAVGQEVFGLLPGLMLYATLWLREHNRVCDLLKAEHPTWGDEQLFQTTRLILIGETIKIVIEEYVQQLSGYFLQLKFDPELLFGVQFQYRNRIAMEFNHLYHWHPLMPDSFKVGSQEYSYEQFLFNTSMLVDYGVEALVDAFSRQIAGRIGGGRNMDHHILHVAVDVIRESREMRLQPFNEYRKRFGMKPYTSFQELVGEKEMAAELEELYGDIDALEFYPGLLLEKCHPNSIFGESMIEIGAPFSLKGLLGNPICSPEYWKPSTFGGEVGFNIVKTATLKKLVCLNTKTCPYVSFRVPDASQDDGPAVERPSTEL

SMILES | inhibition [1] [%] | IC50 [2] [nM] | IC50 [3] [nM] | inhibition at 10 min, 1 µM [4] [%] | inhibition at 10 min, 3.16 µM [5] [%] | inhibition at 10 min, 10 µM [6] [%] | inhibition at 10 min, 31.6 µM [7] [%] | inhibition at 10 min, 100 µM [8] [%] | inhibition at 10 min, 1 µM [9] [%] | inhibition at 10 min, 3.16 µM [10] [%]
CN=[S+](C)([O-])c1ccc(C2=C(c3ccccc3)C(=O)OC2)cc1 (stereo unspecified) | 10 | 42.4 | 156 | – | – | – | – | – | – | –
C[S+](=N)([O-])c1ccc(C2=C(c3ccccc3)C(=O)OC2)cc1 (stereo unspecified) | 26 | – | – | 1.7 | 7 | 20 | 27.6 | 29.6 | -0.1 | –
CS(=O)(=O)c1ccc(C2=C(c3ccccc3)C(=O)OC2)cc1 [ROFECOXIB] | – | – | – | 6.8 | 8.3 | 10.4 | 19.1 | 27.6 | – | -10.2
